Data from patent US7510825B2, “Kits and methods for detection of apoptotic cells” (NST NeuroSurvival Technologies Ltd, priority 2000, dated 2009).

How the values were obtained:
[1] = tested on: Jurkat cells (T-cell leukemia, human); assay: Binding of DDC and PI to Jurkat cells treated with anti-Fas antibody, FACS; type: cell-based; settings: anti-Fas antibody 0.1 μg/ml for 180 minutes
Procedure: a. Non Adherent Cells • 1. Inducing cells to undergo apoptosis. A negative control should be prepared by incubating cells in the absence of apoptosis induction agent. • 2. Washing the cells and adjusting the number of cells to 1×10^7/ml in PBS. • 3. Transferring 30 μl from the cell suspension to a suitable test tube for FACS analysis. • 4. Adding 260 μl of PBS and 5 μl of DDC to the tube and incubating for 15 minutes at room temperature (RT), protected from light. • 5. Adding 5 μl of Propidium Iodide (PI) and perform FACS analysis.
Analyzing DDC accumulation by flow cytometry using FACS apparatus that includes a UV laser. For DDC analysis: the UV detector excitation is at 356 nm and the emission is at 530 nm with a band pass of […]. […] The population should be separated into three groups: live cells will show a low level of fluorescence (background), apoptotic cells will show higher UV fluorescence and necrotic cells will show both red and higher UV fluorescence.
Jurkat cells (T-cell leukemia, human) were treated with anti-Fas antibody (0.1 μg/ml) for 180 minutes, Following incubation the cells were washed and stained with DDC (as detailed in DDC protocols, IIIA). […] Following incubation with anti-Fas antibody, most of the cells shifted to the lower right section (AII, EA) of higher fluorescence value, indicating increased staining with DDC. […]

[2] = tested on: ischemic brain, damaged neuronal cells; assay: DDC staining of ischemic damage following transient MCA occlusion; type: in vivo, rats; settings: 2 h MCA occlusion and reperfusion, DDC at 22 hours
Procedure: (§1) A. Administration of DDC in-vivo: Injection of 200 μl of DDC intravenously. Following 1-2 hours, animal is sacrificed, and the desired organ is placed in a test tube or on a small plate, suitable for liquid nitrogen freezing. The plate is then covered with an aluminum foil, and transferred to liquid nitrogen. Following 5-30 minutes the specimen is being frozen to −80° C. and kept at −80° C. for at least 16 hr. B. Analysis of the Specimen: • a. Whole organ imaging Ex-vivo whole organ fluorescence imaging may be carried out on freshly excised specimen, that can be analyzed under a stereomicroscope (such as Leica MZ FL III, Leica Switzerland). […] Emitted fluorescence can be imaged using appropriate camera and software, such as a Leica DC 300F Distal camera and images can be processed and analyzed by Leica QWin Lite software. • b. […] Analysis of the tissue sections can be performed using a fluorescence microscope with a UV filter characterized by excitation at 360-370 nm (band pass) and emission at 420 nm (barrier filter) In case that staining of the examined tissue is desired, the following procedures can be applied:
Transient focal ischemia was induced by middle cerebral artery (MCA) occlusion and reperfusion. […] At 22 hours from MCA occlusion, neurological score was assessed and DDC was injected I.V. (as detailed in DDC protocols II-A) for a successive 2 h before sacrificing the animals. […]

[3] = tested on: tubular epithelial cells of the septic kidney; assay: Focal uptake of DDC in the septic kidney (cecal ligature and perforation); type: in vivo, mice; settings: 24 h after cecal ligature and puncture
Procedure: A. Administration of DDC in-vivo: Injection of 200 μl of DDC intravenously. Following 1-2 hours, animal is sacrificed, and the desired organ is placed in a test tube or on a small plate, suitable for liquid nitrogen freezing. The plate is then covered with an aluminum foil, and transferred to liquid nitrogen. Following 5-30 minutes the specimen is being frozen to −80° C. and kept at −80° C. for at least 16 hr. B. Analysis of the Specimen: • a. Whole organ imaging Ex-vivo whole organ fluorescence imaging may be carried out on freshly excised specimen, that can be analyzed under a stereomicroscope (such as Leica MZ FL III, Leica Switzerland). DDC may be visualized using 360cx and >420cm nm filter set. Emitted fluorescence can be imaged using appropriate camera and software, such as a Leica DC 300F Distal camera and images can be processed and analyzed by Leica QWin Lite software. • b. Histological analysis, from the frozen organ or tissue, 4 μm cryosections are prepared on slides. Analysis of the tissue sections can be performed using a fluorescence microscope with a UV filter characterized by excitation at 360-370 nm (band pass) and emission at 420 nm (barrier filter) In case that staining of the examined tissue is desired, the following procedures can be applied: […]

[4] = tested on: epithelial cells of the small intestine; assay: Detection by DDC of apoptosis in small intestine epithelial cells following chemotherapy; type: in vivo, mice; settings: 48 hr following Cyclophosphamide and Taxol chemotherapy
Procedure: as §1
Chemotherapy treatment is not selective to tumor cells, but can also affect other organs/tissue within the body as a side effect. […] Such side effects may be detected by DDC in the small intestine, in which the epithelial cells are affected by the chemotherapy. […]

[5] = tested on: injured renal tissues (outer medulla); assay: Radiocontrast-induced distal tubular necrosis model, detection by DDC; type: in vivo, rat; settings: 24 h after radiocontrast insult, DDC i.v. 2 hours
Procedure: A. Administration of DDC in-vivo: Injection of 200 μl of DDC intravenously. Following 1-2 hours, animal is sacrificed, and the desired organ is placed in a test tube or on a small plate, suitable for liquid nitrogen freezing. The plate is then covered with an aluminum foil, and transferred to liquid nitrogen. Following 5-30 minutes the specimen is being frozen to −80° C. and kept at −80° C. for at least 16 hr. B. Analysis of the Specimen: • a. Whole organ imaging Ex-vivo whole organ fluorescence imaging may be carried out on freshly excised specimen, that can be analyzed under a stereomicroscope (such as Leica MZ FL III, Leica Switzerland). DDC may be visualized using 360cx and >420cm nm filter set. Emitted fluorescence can be imaged using appropriate camera and software, such as a Leica DC 300F Distal camera and images can be processed and analyzed by Leica QWin Lite software. • b. […] Analysis of the tissue sections can be performed using a fluorescence microscope with a UV filter characterized by excitation at 360-370 nm (band pass) and emission at 420 nm (barrier filter) In case that staining of the examined tissue is desired, the following procedures can be applied:
The selectivity of DDC uptake in injured renal tissues was evaluated in this rat model, characterized by selective medullary hypoxic tubular damage. […]

CN(C)c1cccc2c(S(=O)(=O)NC(CSSCC(NS(=O)(=O)c3cccc4c(N(C)C)cccc34)C(=O)O)C(=O)O)cccc12 (stereo not shown) [DDC]
fluorescence (DDC accumulation) of treated versus control cells [1]: marked shift of fluorescence | DDC staining around the ischemic core and in the non-damaged contra-lateral hemisphere [2]: No staining was detected | DDC staining of the ischemic core ([2]; ex-vivo coronal section): high intensity staining | DDC staining versus TUNEL staining [3]: detected early apoptotic cells where TUNEL staining is still negative | identification of focal tubular cell injury ([3]; compared with H&E): clearly identified by DDC staining | uptake of DDC into single epithelial cells [4]: increased uptake | DDC distribution pattern versus morphological findings in the contralateral kidney [5]: closely followed the characteristic striped pattern
